“And” between values parts separate entries of the source, which are not always exact repeats. Identical values can stand only once. Like-named read-outs stand apart in the source and are kept apart here.

By AUC(0-inf) is commonly meant the area under the concentration-time curve extrapolated to infinity. The term Tmax denotes the time at which the peak concentration occurs. By Cmax is commonly meant the peak of the concentration-time curve.

The nature of series [1]: Stability of DSV, TAM and TOH in rat plasma under storage and treatment conditions. In kind it is in vitro ADME. Conditions: six determinations; for recovery at 56 h / recovery at 6 h / recovery / recovery at 30 days: Wistar, rat, rat plasma; for recovery at 56 h: rat plasma (prepared QC samples in the auto-injector), 10 °C, read-out: Auto-sampler stability, mean recovery (%) ± RSD; for recovery at 6 h / recovery / recovery at 30 days: rat plasma (spiked QC samples); for recovery at 6 h: 25 °C, read-out: Short-term stability, mean recovery (%) ± RSD; for recovery / recovery at 30 days: −30 °C; for recovery: 3 cycles, read-out: Freeze-thaw stability, mean recovery (%) ± RSD; for recovery at 30 days: read-out: Long-term stability, mean recovery (%) ± RSD; for recovery at 3 months: analyte solutions, 4 °C, read-out: Refrigerator stability, mean recovery (%) ± RSD. The method, then:
This ensures that no detectable degradation was noticed and that all analytes were stable under the studied conditions. The analytes’ solutions were also stable when kept refrigerated at 4 °C for 3 months or at room temperature for up to 6 h.
Samples were subjected to different storage conditions. Auto-sampler stability was assessed by leaving prepared samples in the auto-injector (10 °C, 56 h) before the injection. Short-term (bench top) stability was evaluated by analyzing samples after being stored at room temperature (25 °C, 6 h). On the other hand, long-term stability was assessed by analyzing samples which had been frozen before analysis (−30 °C, 30 days). Stability of samples was also assessed following three freeze–thaw cycles (frozen at −30 °C, thawed at 25 °C).

The nature of series [2]: Pharmacokinetic interaction study of DSV and TAM/TOH after oral single or co-administration to Wistar rats (UPLC-MS/MS of plasma, NCA). The series is classed as in vivo. Conditions: for change in PK parameters following co-administration compared with single administration: Group III (DSV 50 mg/kg + TAM 10 mg/kg, oral) vs Group I (DSV) and Group II (TAM), only exception tmax of TOH; for AUC(0-inf) / Tmax / half-life / Cmax: male, Wistar, rat, plasma, po, mean ± SD, n = 5; for half-life: read-out: t½ (converted); for Cmax: rat plasma; for M.R.(%) metabolite ratio: ratio of AUC0-∞ of TOH to that of TAM, rats.
Method: The rats were acclimatized for seven days before starting the experiment. All rats were kept in a well-ventilated room and under standard laboratory conditions; 12 h day/night cycle, average temperature of 25 ± 2 °C, and average relative humidity of 50 ± 2%.
Three group of randomly distributed rats (n = 5) were used to conduct the study. […] Following drug administration, orbital blood samples (0.3 mL) were collected into a series of 1.5 mL polythene heparinized tubes prior to dosing (0 time) and at different time intervals following the drug administration; 0.25, 0.5, 1, 2, 4, 5, 12, 24, and 48 h. Immediate centrifugation (4,500 rpm) of collected blood samples was performed at 4 °C for 30 min. The resulting plasma samples were then stored at −20 °C until the day of analysis. Plasma samples (50 µL) were separately mixed with 50 µL OND, IS, (50 ng/mL), 150 µL of 2% formic acid, and finally completed to 1-mL volume with acetonitrile. Sample preparation was then carried out exactly as mentioned under the experimental section. […] These concentrations were then plotted versus the corresponding withdrawal time.
Plasma concentration-time data were treated by the non-compartmental analysis (NCA) method using PKSolver Add-In Excel 2010. Different PK parameters were calculated. They included maximum drug plasma concentration (Cmax) and the time required to reach the maximum plasma concentration (tmax). Both Cmax and tmax were derived from plasma concentration-time curve simply by visual inspection of the data. Using the PKSover, the elimination rate constant (Kel), the half-life (t1/2), the area under the plasma concentration-time curve from 0 time to the last sampling time t (AUC0-t), the area under the plasma concentration-time curve from 0 time to ∞ (AUC0-∞), and the apparent oral clearance (CL/F) were calculated. Kel was calculated from the slope of the plasma concentration-time curve during the elimination phase and from which t1/2 was derived, t1/2 = 0.693/Kel. The linear trapezoidal rule was used to calculate AUC0-t. The summation of AUC0-t and the extrapolated area from time t to ∞, calculated from the last measured concentration (Clast), result in total AUC from 0 time to ∞, AUC0-∞, AUC0-∞ = AUC0-t + (Clast/Kel). CL/F was calculated by dividing the dose by AUC0-∞. The relative bioavailability (R.B.) was obtained from the ratio of AUC0-∞ of the treated group to AUC0-∞ of the control group.

On the set-up of series [3]: method as in earlier work. Conditions: cited from earlier work.
Series [4] relates to estrogen-dependent cell proliferation. The settings on record: relative to TAM, cited from earlier work.
Where [5] appears, read: high concentration level (800, 400, 400 ng/mL for DSV, TAM, TOH).
Setting [6] is: oral co-administration of DSV 50 mg/kg and TAM 10 mg/kg (TOH as metabolite of TAM).
Setting [7] is: single oral administration, DSV 50 mg/kg or TAM 10 mg/kg (TOH as metabolite of TAM).

For the compound `COc1c(-c2ccc3cc(NS(C)(=O)=O)ccc3c2)cc(-n2ccc(=O)[nH]c2=O)cc1C(C)(C)C` [DSV, Dasabuvir], in series [1] (setting [5]), the recovery at 56 h came to 98.5%, the recovery at 6 h came to 95%, the recovery at 30 days is 98.8% and the recovery at 3 months is 97.6%. For the same compound, in series [1] (low concentration level), the recovery at 56 h came out at 95.5%, the recovery at 6 h came out at 96.3%, the recovery turned out to be 98.5% and the recovery at 30 days came out at 96.8%. Besides, in series [1] (low concentration level), the recovery at 3 months stood at 96.2%. In addition, the “change in PK parameters following co-administration compared with single administration” value in series [2] was “no significant changes”. Further, in series [2] (setting [6]), the AUC(0-inf) was found to be 4660 ± 687 ng·h/mL, the Tmax is 4.98 ± 0.61 h, the half-life was 19.7 ± 5.41 h and the Cmax was 159 ± 49 ng/mL. In addition, in series [2] (setting [7]), the AUC(0-inf) stood at 4270 ± 754 ng·h/mL, the Tmax came to 4.95 ± 1.07 h, the half-life was 17.9 ± 5.93 h and the Cmax amounted to 144 ± 26.5 ng/mL. For the same compound, in series [3], the “pKa (pK1)” value is 8.2 and the “pKa (pK2)” value is listed as 9.2.
As for `CC/C(=C(\c1ccccc1)c1ccc(OCCN(C)C)cc1)c1ccccc1` [TAM, Tamoxifen], in series [1] (setting [5]), the recovery at 56 h was found to be 93.5%, the recovery at 6 h was 96.8%, the recovery at 30 days turned out to be 97.3% and the recovery at 3 months is 96.6%. Also, in series [1] (low concentration level), the recovery at 56 h was 98.2%, the recovery at 6 h is 98.2%, the recovery is 96.1% and the recovery at 30 days came to 99.7%. The recovery at 3 months in series [1] (low concentration level) is 98.9%. Moreover, in series [2] (setting [6]), the AUC(0-inf) was 3510 ± 464 ng·h/mL, the Tmax came to 3.03 ± 0.66 h, the half-life is 17.7 ± 3.42 h and the Cmax was 288 ± 81 ng/mL. Also, in series [2] (setting [7]), the AUC(0-inf) turned out to be 3880 ± 407 ng·h/mL, the time to peak (Tmax) was determined as 2.03 ± 0.95 h, the half-life was 15.8 ± 5.18 h and the Cmax turned out to be 307 ± 109 ng/mL.
Turning to `CC/C(=C(\c1ccc(O)cc1)c1ccc(OCCN(C)C)cc1)c1ccccc1` [TOH, 4-hydroxy tamoxifen], in series [1] (setting [5]), the recovery at 56 h is 95.2%, the recovery at 6 h came out at 98.9%, the recovery at 30 days came out at 95.8% and the recovery at 3 months came to 97%. Moreover, in series [1] (low concentration level), the recovery at 56 h was 99.7%, the recovery at 6 h was 96.9%, the recovery came to 97.5% and the recovery at 30 days was determined as 99%. Besides, the recovery at 3 months in series [1] (low concentration level) worked out at 98%. In addition, in series [2], the “change in PK parameters following co-administration compared with single administration” value is recorded as “no significant changes”. Also, in series [2] (setting [6]), the AUC(0-inf) was found to be 4550 ± 913 ng·h/mL, the Tmax was 5.03 ± 0.66 h, the half-life is 19.7 ± 1.41 h and the maximum concentration (Cmax) turned out to be 164 ± 54.5 ng/mL. In addition, in series [2] (setting [7]), the area under the curve AUC(0-inf) is 4730 ± 774 ng·h/mL, the Tmax is 2.03 ± 0.95 h, the half-life is 28.8 ± 1.98 h and the Cmax was determined as 172 ± 54 ng/mL. Besides, the “M.R.(%) metabolite ratio” value in series [2] (oral co-administration of DSV 50 mg/kg and TAM 10 mg/kg) amounted to 129.65 ± 10.88%. For the same compound, the “M.R.(%) metabolite ratio” value in series [2] (single oral TAM 10 mg/kg) worked out at 121.86 ± 11%. Further, the “reported estrogenic properties, times more potent than TAM” value in series [4] (at least, reported) is on record as 30–100 times. For the same compound, in series [4], the “times more potent than TAM in inhibiting estrogen-dependent cell proliferation” value is 30 to 100 times. Besides, the pka in series [3] was 8.66 and 9.45.

The record behind these values is publication PMC7044166 (Scientific Reports, 2020).
